Tested on: subjects with major depressive disorder (MDD) who were inadequate responders to citalopram
Test: SDS (Sheehan Disability Scale), Phase 2b add-on trial
Format: in vivo, human
Conditions: for SDS Difference vs placebo / SDS Adj. Mean change: ITT; for SDS Difference vs placebo: Week 8 to Week 16 LOCF; for SDS Adj. Mean change: change from Week 8 (double-blind baseline) to Week 16 LOCF, add-on to citalopram
Source text: The Sheehan Disability Scale (SDS) is widely used not only in psychiatry but also in many other chronic medical illnesses because of its generic design. It measures impairment in functioning. The scale generates 4 scores: a work disability score, a social life disability score, a family life disability score and a total score. A total score is generated through addition of the 3 individual scores (work: social life: family life). The maximum possible score is 30. In more detail, a multi-center double-blind, randomized, placebo-controlled, parallel group, flexible dose titration study of TC-5214 as adjunctive therapy in subjects with major depressive disorder (MDD) who were inadequate responders to citalopram was conducted in centers in the US and India. The study consisted of a screening period, baseline/washout period, open-label phase, double-blind phase, and a follow-up visit. Subject participation in the study could continue for up to 16 weeks of treatment. Following a washout period of up to 28 days for other antidepressants, subjects with MDD and a MADRS total score >/=28 and a Clinical Global Impression-Severity (CGI-S) score >/=4 were enrolled on Day 1 into an open-label citalopram-only phase of the study. This phase lasted 8 weeks, with citalopram (CIT) dose increased from a once-daily dose of 20 mg (Day 1 through Week 4) to 40 mg (Week 4 through Week 8). A total of 579 subjects entered the open-label citalopram phase. At Week 8, subjects who tolerated 40 mg CIT, but whose MADRS score was reduced <50% from baseline and no lower than 17, and CGI-S≧4, were considered inadequate responders. These subjects (n=270) were randomized in a double-blind fashion to receive either placebo or TC-5214-23 as add-on therapy to continued CIT. The double-blind phase of the study also lasted 8 weeks (Week 8 to Week 16). Study drug, TC-5214-23 or placebo, was started at 2 mg daily (1 mg twice per day [BID] dosing), added on to continuing CIT (40 mg PO qd). After 2 weeks of treatment, the dose of TC-5214 could be increased to 4 mg (2 mg BID) or continued unchanged, with up-titration based upon good tolerability and inadequate therapeutic response. After a further 2 weeks, the dose of TC-5214 could be increased again to 8 mg (4 mg BID) if judged appropriate by the investigator, based upon good tolerability and inadequate therapeutic response. At any time during the double-blind phase of the study, placebo or TC-5214-23 could be reduced to the previous dose level following the emergence of unacceptable adverse events (AEs). […] At this follow-up, any signs or symptoms of relapse were evaluated. If a subject was prematurely discontinued from the study between Week 8 and Week 16 for any reason, the investigator was to make every effort to perform all evaluations as per protocol, assuming the subject had reached the end of the double-blind add-on treatment phase. These evaluations were to be made as soon as possible and within 2 weeks of discontinuation. […] There was no meaningful difference in results as a function of age, gender, site, or smoking status. With regard to efficacy endpoints, the following tables present efficacy used in the ITT (Intent-to-Treat) and PP (Per Protocol) populations unless otherwise specific. The primary inference was based upon Week 16 visit using the ITT population. Change from baseline was obtained by subtracting the baseline values from the individual on-treatment values. Change from Week 16 was obtained by subtracting the Week 16 values from the individual follow-up visit (Week 18/19) values. If either the baseline or Week 16 or on-treatment or follow-up value was missing, the change from baseline or Week 16 value was also set to missing. To account for missing data, the last observation carry forward (LOCF) method was used for the ITT and PP populations. […]

[1] = ITT Population, Double Blind Week 16 LOCF, change from Week 8 (double-blind baseline)
[2] = ITT Population, Double Blind Week 18 LOCF (Follow-up)
[3] = ITT and PP populations, result in words
[4] = PP Population, Double Blind Week 16 LOCF, change from Week 8 (double-blind baseline)
[5] = PP Population, Double Blind Week 18 LOCF (Follow-up)

## CNC1(C)C2CCC(C2)C1(C)C (stereo in doubt) [TC-5214, (S)—N,2,3,3-tetramethylnorbornan-2-amine]
[1]
  SDS change Adjusted Mean: −9.18
  SDS change Mean Difference between TC-5214 and Placebo: 4.60
[2]
  SDS change Adjusted Mean: −0.46
  SDS change Mean Difference between TC-5214 and Placebo: −0.23
[3]
  SDS individual items (Work-School; Social Life; Life-Home Responsibilities) change from baseline compared with placebo: statistically significant decreases (improvements)
  SDS score change from baseline compared with placebo: statistically significant decreases (improvements)
  SDS Difference vs placebo: −4.49 (−5.96, −3.01)
  SDS Adj. Mean change: −9.18 (0.53)
Listed as TC-5214 + CIT
  SDS Difference vs placebo: −4.49
  SDS Adj. Mean change: −9.18
[4]
  SDS change Adjusted Mean: −10.21
  SDS change Mean Difference between TC-5214 and Placebo: 4.86
[5]
  SDS change Adjusted Mean: −0.44
  SDS change Mean Difference between TC-5214 and Placebo: −0.20

— US20120190752A1, “EXO-S-MECAMYLAMINE METHOD, USE, AND COMPOUND FOR TREATMENT” (Targacept Inc., priority 2009, published 2012)
